Measurements: PubChem BioAssay (NCI)
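Growth conditions: 96-well plates. Treatment: test compound, 48 hours, 5 concentrations. Analysis: linear interpolation between bracketing concentrations; unreached endpoints set to highest concentration. At the GI50, growth is halved. TGI: total growth inhibition.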

How the values were obtained:
Assay in all cases: inhibition of tumour cell growth, NCI panel, 48 h
SR leukemia = system: SR leukemia
HCC-2998 colon = system: HCC-2998 colon
T-47D breast = system: T-47D breast
HT29 colon = system: HT29 colon
OVCAR-4 ovarian = system: OVCAR-4 ovarian
MDA-MB-231 breast = system: MDA-MB-231 breast
CCRF-CEM leukemia = system: CCRF-CEM leukemia
SK-MEL-5 melanoma = system: SK-MEL-5 melanoma
KM12 colon = system: KM12 colon
MCF7 breast = system: MCF7 breast

Row | SMILES | TGI (SR leukemia) [µM] | TGI (HCC-2998 colon) [µM] | TGI (T-47D breast) [µM] | TGI (HT29 colon) [µM] | TGI (OVCAR-4 ovarian) [µM] | TGI (MDA-MB-231 breast) [µM] | TGI (CCRF-CEM leukemia) [µM] | TGI (SK-MEL-5 melanoma) [µM] | TGI (KM12 colon) [µM] | TGI (MCF7 breast) [µM] | GI50 (SR leukemia) [µM] | GI50 (HCC-2998 colon) [µM] | GI50 (T-47D breast) [µM] | GI50 (HT29 colon) [µM] | GI50 (OVCAR-4 ovarian) [µM] | GI50 (MDA-MB-231 breast) [µM] | GI50 (SK-MEL-5 melanoma) [µM] | GI50 (KM12 colon) [µM] | GI50 (MCF7 breast) [µM] | GI50 (CCRF-CEM leukemia) [µM]
1 | Cc1c(O)c2ccccc2oc1=O | > 100 | > 100 | > 100 | > 100 | > 100 | > 100 | > 100 | > 100 | > 100 | > 100 |  |  |  |  |  |  |  |  |  | 
2 | Nc1c(C(=O)c2ccc(-c3cccnc3)cc2)cnn1-c1ccc(F)cc1 | > 25 | > 25 | > 21.7 | > 25 | > 24 | > 25 | > 25 | > 25 | > 25 | > 25 | > 25 | > 25 | 9.72 | > 21.6 | 8.41 | > 13.1 | > 15.2 | > 20.8 | > 25 | 
3 | O=C(c1ccco1)c1nc2cc(C(F)(F)F)ccc2nc1C(F)(F)F | > 100 | > 100 | > 100 | > 100 | > 100 | > 100 |  | > 100 | > 100 | > 100 | 40.5 | > 100 | 72 | > 100 | 56.4 | 99.1 | > 100 | > 100 | 40.6 | 
4 | CCOC(=O)c1ccc(Nc2sc(C(=O)c3ccc(Br)cc3)c(N)c2C#N)cc1 | > 45.5 | > 100 | > 100 | > 100 | > 100 | > 100 | > 100 | > 100 | > 100 | > 100 | 0.658 | > 100 | 2.85 | 0.447 |  | 2.92 | 1.02 | 0.775 | 0.655 | 1.43
5 | CN1CCC(COc2cnc(-c3cccc(Cn4nc(-c5cccc(C#N)c5)ccc4=O)c3)nc2)CC1 | 4.49 | 18.7 | 5.99 | 4.66 | 5.32 | 4.43 | 19.6 | 2.85 | 16.5 | 14.9 | 2.08 | 6.34 | 2.27 | 2.04 | 2 | 2 | 1.49 | 4.36 | 3.46 | 2.56
6 | C=C(C)[C@@H]1CC[C@]2(COCCC#N)CC[C@]3(C)[C@H](CC[C@@H]4[C@@](C)(CCCNCCC#N)[C@H](C(=C)C)CC[C@]43C)[C@@H]12 | 42.3 | 20.1 | > 50 | 19.8 | > 50 | 17.7 | 38.5 | > 50 | > 50 | 48.5 | 8.48 | 9.08 | 8.71 | 7.88 | 18 | 7.83 | 20.2 | 15.6 | 9.9 | 10.8
7 | O=C1/C(=C\c2ccc(F)cc2)CN(C(=O)c2ccccc2)C/C1=C\c1ccc(F)cc1 | 26.8 | 6.98 | 71.4 | 4.34 | 18.1 | 6.39 | > 100 | 3.8 |  | 4.31 | 0.484 | 2.62 | 6.22 | 1.67 | 1.84 | 2.27 | 1.66 |  | 0.841 | 1.05
8 | O=C1CC[C@H](N2C(=O)c3cccc4c(Cc5ccc(CN6CCOCC6)cc5)ccc2c34)C(=O)N1 | > 100 | > 100 | > 100 | > 100 | > 100 | > 100 | > 100 | 26.4 | > 100 | > 100 | 4.03 | > 100 | 10.7 | 28.9 | 21.9 | 79.5 | 7.32 | 79 | 23.7 | 55.9
9 | Cc1cccc(-c2[nH]ncc2-c2ccc3ncccc3n2)n1 | > 25 | > 25 | > 23.9 | > 25 | > 25 | > 25 | > 25 | > 18.5 | > 25 | > 25 | 9.2 | > 25 | 7.07 | 12.1 | > 22.4 | 14.5 | 9.63 | 9.51 | 8.48 | 12.4
10 | Cc1ccc(NC(=O)c2ccc(CN3CCN(C)CC3)cc2)cc1Nc1nccc(-c2cccnc2)n1 | > 51.3 | 38.5 | 49.6 | 24.1 | 65.3 | 46.2 | 71.1 | 24.9 | 41.3 | 44.8 | 4.72 | 21.3 | 16.9 | 4.88 | 18.6 | 18.3 | 12.3 | 18.8 | 17.8 | 18.4
11 | CC[C@H](NC(=O)[C@H]1CCCCN1C)C(=O)N(C)[C@H](C[C@@H](OC(C)=O)c1nc(C(=O)N[C@@H](Cc2ccccc2)C[C@H](C)C(=O)O)cs1)C(C)C | > 14.3 | > 14.3 | > 14.3 | > 14.3 | > 14.3 | > 14.3 | > 14.3 | 0.101 | > 14.3 | > 14.3 | 0.00183 | 0.0112 | 0.0058 | 0.00388 | 0.0326 | 0.008 | < 0.00143 | 0.00192 | < 0.00143 | 0.00383
12 | C=C(C)C1CC/C(C)=C/CCC2(C)OC2CC/C(CO)=C\C1O (centres undefined) | > 100 | > 100 | > 100 | > 100 | > 100 | > 100 | > 100 |  | > 100 | > 100 |  |  |  |  |  |  |  |  |  | 
13 | NS(=O)(=O)OCC1OC(n2cnc3cncnc32)C(O)C1O (centres undefined) | 21.6 | 0.097 | 0.0665 | 0.105 | 0.0745 | 0.0376 | > 21.1 | 0.144 | 0.0522 | 0.0806 | 0.0153 | 0.0312 | < 0.0134 | 0.0275 | 0.0103 | 0.0101 | 0.0402 | 0.0179 | 0.0185 | 0.0389
14 | C=CCC(N[C@@H](CO)c1ccccc1)c1cn(Cc2ccccc2Cl)c(=O)n(Cc2ccccc2Cl)c1=O (some centres undefined) | > 100 | > 100 | > 100 | > 100 | > 100 | > 100 | > 100 | > 100 | > 100 | > 100 | > 100 | > 100 | > 100 | > 100 | > 100 | 78 | > 100 | > 100 | > 100 | > 100
15 | COc1ccc(C(=O)Nc2ncc(Cc3cccc(Cl)c3)s2)cc1OC | > 100 | > 44.1 | > 100 | > 100 | > 100 | > 100 | > 100 | 11.1 | > 100 | > 100 | 0.164 | 0.134 | 0.169 | 0.148 | 3.68 | 1.77 | 0.247 | 0.0547 | 0.36 | 0.626
16 | Nc1ccccc1NC(=O)c1ccc(CNc2nccc(-c3cccnc3)n2)cc1 |  | 2.59 | > 22.8 | 6.28 | > 28.3 | > 100 | > 100 | 1.15 | 14.1 | > 43.3 | 0.268 | 0.785 | 0.657 | 0.364 | 1.43 | 2.44 | 0.381 | 0.886 | 0.716 | 0.742
17 | CCC(CC)c1nc(Nc2ccc(C(=O)OC)cc2)c2ccccc2n1 | 26.7 | 17.1 | 17.5 |  | 18.6 | 22.8 | 48.9 | 16.1 | 18 | > 50 | 10.1 | 8.66 | 7.88 |  | 7.45 | 8.59 | 7.82 | 8.01 | 24.2 | 6.64
18 | Cn1cc(C2=C(c3ccccc3[N+](=O)[O-])C(=O)NC2=O)c2ccccc21 | 12.9 | > 23.7 | 23.5 | 12.4 | 24.5 | 19.6 |  | 8.06 | 13.3 | > 25 | 2.33 | 7.79 | 7.52 | 1.81 | 4.88 | 4.72 | 2.86 | 3.25 | 4.05 | 
19 | Cc1cc(=O)[nH]c(N/N=C/c2cc(Br)ccc2O)n1 | > 100 | > 100 | 56.7 | > 100 | 33.8 | > 100 | > 100 |  | > 100 | 16.6 | 0.896 | 1.85 | 0.437 | 13.3 | 0.383 | 0.976 |  | 0.869 | 0.318 | 0.441
20 | O=C(O)/C=C/C(=O)N1Cc2cc3ccccc3nc2C1 | > 100 | > 100 | > 100 | > 100 |  | > 100 |  | > 100 | > 100 | > 100 |  |  |  |  |  |  |  |  |  | 
